Earlier results on one substance are cited in patent US6436449B2, “Use of a composition” (priority 2000, dated 2002).

The subject of one data set is burn eschars. As to conditions: mice; US 4,543,212.
Another data set relates to blood platelets. As to conditions: in vitro; US 4,543,212.
For data set [1] the following is noted: injected into mice; US 4,543,212.

xeronine: in the data set on burn eschars, the “debridement of burn eschars” value is “caused the debridement of burn eschars”. In addition, in the data set with blood platelets, the “aggregation of blood platelets by adenosine diphosphate” value is on record as “inhibited”. For the same substance, the anti-inflammatory action result in data set [1] is recorded as “excellent anti-inflammatory agents”.
